Reference: patent publication US20250352458A1, “IMPROVEMENTS IN OR RELATING TO EXTRACTS” (Givaudan SA, priority 2020, published 2025)
Several values for one entry are separate records, joined by “and”; a condition that tells them apart may be missing. Equal values may be shown once.

Experiments:
[1] = system: Propionibacterium acnes (C. acnes) phylotype IA1 ATCC 6919; experiment: MIC evaluation, optical density and percentage of inhibition; format: cell-based
Source text: (§1) The minimum inhibitory concentration of the following active ingredients has been assessed: • Mangifera indica extract (in propanediol/water 75/25); • Vehicule (propanediol/water 75/25, expressed as Activolo3-75%); • “Pool Mangiferin” which is the pure molecule mangiferin at the same concentration in the Mangifera indica extract in propanediol/water 75/25. • “Pool Mangifera” with is the mix of the 4 molecules (mangiferin, maclurin-C-glucoside, irifluophenone-C-glucoside, gallotanin) at the same concentration in the Mangifera indica extract in propane-diol/water 75/25. […] After two days, the bacterial concentration was adjusted in reinforced clostridial broth to obtain a solution at 1.106 CFU/ml (5.104 CFU/well). […] Concentrations are expressed in % (m/v). […] The diluted bacterial suspension was added to columns 2 to 12. RCB medium was added to column 1 as negative control. Optical density was determined, which correlates to the bacterial growth.

[2] = system: C. granulosum (ATCC 25564); experiment: as above; format: cell-based, Cutibacterium granulosum
Source text: as §1

[3] = 0.39 10^−2 % (m/v), plate col. 12
[4] = 0.78 10^−2 % (m/v), plate col. 11
[5] = 1.56 10^−2 % (m/v), plate col. 10
[6] = 3.1310^−2 % (m/v), plate col. 9
[7] = 6.25 10^−2 % (m/v), plate col. 8
[8] = 12.5 10^−2 % (m/v), plate col. 7
[9] = 25.0 10^−2 % (m/v), plate col. 6

O=c1c2cc(O)c(O)cc2oc2cc(O)c([C@@H]3O[C@H](CO)[C@@H](O)[C@H](O)[C@H]3O)c(O)c12 [pool mangiferin]
Optical density, C. acnes [1, 3]: 0.238 and 0.246 | Percentage of inhibition, C. acnes [1, 3]: 2.0% and 0% | Optical density, C. acnes ([1]; 0.5% (m/v), plate col. 5): 0.242 and 0.245 | Percentage of inhibition, C. acnes ([1]; 0.5% (m/v), plate col. 5): 0% | Optical density, C. acnes [1, 4]: 0.244 and 0.245 | Percentage of inhibition, C. acnes [1, 4]: 0% | Optical density, C. acnes ([1]; 1% (m/v), plate col. 4): 0.241 | Percentage of inhibition, C. acnes ([1]; 1% (m/v), plate col. 4): 0% | Optical density, C. acnes [1, 5]: 0.243 and 0.242 | Percentage of inhibition, C. acnes [1, 5]: 0% | antibacterial effect against P. acnes (in words) ([1]; 2%): no antibacterial effect | Optical density, C. acnes ([1]; 2% (m/v), plate col. 3): 0.236 and 0.234 | Percentage of inhibition, C. acnes ([1]; 2% (m/v), plate col. 3): 3.0% and 4.1% | Optical density, C. acnes [1, 6]: 0.244 | Percentage of inhibition, C. acnes [1, 6]: 0% | Optical density, C. acnes [1, 7]: 0.242 and 0.245 | Percentage of inhibition, C. acnes [1, 7]: 0% | Optical density, C. acnes [1, 8]: 0.245 and 0.244 | Percentage of inhibition, C. acnes [1, 8]: 0% | Optical density, C. acnes [1, 9]: 0.245 and 0.243 | Percentage of inhibition, C. acnes [1, 9]: 0% | Optical density, C. granulosum [2, 3]: 0.546 and 0.539 | Percentage of inhibition, C. granulosum [2, 3]: 0.5% and 1.9% | Optical density, C. granulosum ([2]; 0.5% (m/v), plate col. 5): 0.449 and 0.457 | Percentage of inhibition, C. granulosum ([2]; 0.5% (m/v), plate col. 5): 19.9% and 18.3% | Optical density, C. granulosum [2, 4]: 0.561 | Percentage of inhibition, C. granulosum [2, 4]: 0% | Optical density, C. granulosum ([2]; 1% (m/v), plate col. 4): 0.417 and 0.419 | Percentage of inhibition, C. granulosum ([2]; 1% (m/v), plate col. 4): 26.3% and 25.9% | Optical density, C. granulosum [2, 5]: 0.573 and 0.570 | Percentage of inhibition, C. granulosum [2, 5]: 0% | Optical density, C. granulosum ([2]; 2% (m/v), plate col. 3): 0.391 and 0.398 | Percentage of inhibition, C. granulosum ([2]; 2% (m/v), plate col. 3): 31.5% and 30.1% | Optical density, C. granulosum [2, 6]: 0.592 and 0.558 | Percentage of inhibition, C. granulosum [2, 6]: 0% | Optical density, C. granulosum [2, 7]: 0.545 | Percentage of inhibition, C. granulosum [2, 7]: 0.7% | Optical density, C. granulosum [2, 8]: 0.505 and 0.520 | Percentage of inhibition, C. granulosum [2, 8]: 8.7% and 5.7% | Optical density, C. granulosum [2, 9]: 0.479 and 0.478 | Percentage of inhibition, C. granulosum [2, 9]: 13.9% and 14.1% | antibacterial effect against C. granulosum (in words) ([2]; at 2%): slight antibacterial effect
